As usually defined, the IC50 is the point on the concentration scale where inhibition reaches its midpoint. Read a low IC50 as higher potency.

The target of this test is Programmed cell death protein 1/Programmed cell death 1 ligand 1 (Homo sapiens, UniProt Q9NZQ7). Nature of the test: Inhibition of human PD1/PDL1 protein-protein interaction by HTRF assay. It counts as protein-complex assay.
Chain of Programmed cell death protein 1/Programmed cell death 1 ligand 1 (Q15116 whole entry): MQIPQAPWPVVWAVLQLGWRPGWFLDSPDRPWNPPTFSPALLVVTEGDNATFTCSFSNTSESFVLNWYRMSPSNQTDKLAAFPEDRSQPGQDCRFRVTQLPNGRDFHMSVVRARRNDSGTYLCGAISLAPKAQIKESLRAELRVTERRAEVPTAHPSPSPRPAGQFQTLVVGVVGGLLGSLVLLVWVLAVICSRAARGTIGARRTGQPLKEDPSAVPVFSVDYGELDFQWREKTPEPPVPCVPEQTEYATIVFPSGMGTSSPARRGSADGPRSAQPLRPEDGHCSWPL
Chain of Programmed cell death protein 1/Programmed cell death 1 ligand 1 (Q9NZQ7 whole entry): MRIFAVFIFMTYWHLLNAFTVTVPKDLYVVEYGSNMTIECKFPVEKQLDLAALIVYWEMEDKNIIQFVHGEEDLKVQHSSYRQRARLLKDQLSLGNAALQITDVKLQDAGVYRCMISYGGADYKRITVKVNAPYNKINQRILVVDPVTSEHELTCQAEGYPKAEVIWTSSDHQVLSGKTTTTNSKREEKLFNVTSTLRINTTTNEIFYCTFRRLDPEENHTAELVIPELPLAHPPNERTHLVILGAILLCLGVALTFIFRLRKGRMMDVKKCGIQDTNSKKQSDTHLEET
`Cc1c(COc2cc(OCc3cccc(C#N)c3)c(CNCC(=O)O)cc2Cl)cccc1-c1ccccc1` displayed an IC50 of 0.01 to 0.1 µM.

Compound `Cc1c(COc2cc(OCc3cccc(C#N)c3)c(CN3C[C@H](O)[C@@H](F)C3)cc2Cl)cccc1-c1ccccc1` registered an IC50 above 0.1 µM. In the case of `Cc1c(COc2cc(OCc3cccc(C#N)c3)c(/C=N/C(CS)C(=O)O)cc2Cl)cccc1-c1ccccc1` (stereo not drawn), the IC50 is above 0.1 µM. The same measure for `Cc1c(/C=C/C(=O)c2cc(CN3CCN(c4cccc([N+](=O)[O-])c4)CC3)ccc2O)cccc1-c1ccc2c(c1)OCCO2`: 19.3 µM; for `Cc1c(COc2cc(OCc3cccc(C#N)c3)c(CN3CC(O)C(CO)C3)cc2Cl)cccc1-c1ccc2c(c1)OCCO2` (stereo not drawn): 0.0167 µM; for `Cc1c(COc2cc(OCc3cccc(C#N)c3)c(CNC(C)(C)C(=O)O)cc2Cl)cccc1-c1cccnc1`: 0.01 to 0.1 µM.

With `Cc1c(COc2cc(OCc3cccc(C#N)c3)c(CN3CC[C@@H](O)C3)cc2Cl)cccc1-c1ccccc1`, the IC50 lay within 0.01 to 0.1 µM. In turn, `CC(=O)N1CCN(Cc2ccc3oc(-c4cccc(-c5ccc6c(c5)OCCO6)c4C)cc(=O)c3c2)CC1` displayed an IC50 above 10 µM. Regarding `Cc1c(COc2cc(OCc3cccc(C#N)c3)c(CN3CC[C@H](O)C3)cc2Cl)cccc1-c1ccc2c(c1)OCCO2`, it took 0.0275 µM to reach half-maximal inhibition (IC50). For `Cc1c(COc2cc(OCc3cccc(C#N)c3)c(CN3CCCC[C@H]3C(=O)O)cc2Cl)cccc1-c1ccncc1`, the IC50 is above 0.1 µM.

In the case of `Cc1c(COc2cc(OCc3cccc(C#N)c3)c(CN3CCC(O)C3)cc2Cl)cccc1-c1ccccc1` (stereo not drawn), the IC50 was in the range of 0.01 to 0.1 µM. As for `COc1cc2c(c(O)c1CC=C(C)C)C(=O)C[C@@H](c1ccc(O)cc1)O2`, the figure is 96.6 µM. In the case of `Cc1c(COc2ccc3cc(CNC(C)(C)C(=O)O)ccc3c2)cccc1-c1ccc2c(c1)OCCO2`, the half-inhibitory concentration (IC50) was above 10 µM. Turning to `Cc1c(COc2cc(OCc3cccc(C#N)c3)c(CN[C@H](CO)C(=O)O)cc2Cl)cccc1-c1cccnc1`, the IC50 lay in the range of 0.01 to 0.1 µM. As for `Cc1c(COc2cc(OCc3cccc(C#N)c3)c(CN3CC(O)C3)cc2Cl)cccc1-c1ccccc1`, the half-maximal inhibitory concentration (IC50) was above 0.1 µM. `Cc1c(COc2cc(OCc3cccc(C#N)c3)c(CN3CCN(C(=O)OC(C)(C)C)CC3)cc2Cl)cccc1-c1ccc2c(c1)OCCO2` returned an IC50 above 1 µM.

As to `c1cc2c(cc1[C@H]1OC[C@H]3[C@@H]1CO[C@@H]3c1ccc3c(c1)OCO3)OCO2` [SESAMIN], the IC50 was above 100 µM. Take `Cc1c(-c2ccccc2)cccc1-c1cc(=O)c2cc(CN3CCNCC3)ccc2o1`: the IC50 is above 10 µM.

Take `Cc1c(COc2ccc3cc(CNCCN)ccc3c2)cccc1-c1ccccc1`: the IC50 was above 10 µM. In the case of `CC(=O)N1CCN(Cc2ccc3oc(-c4cccc(-c5ccccc5)c4F)cc(=O)c3c2)CC1`, the IC50 is above 10 µM. Regarding `CCN1CCN(Cc2ccc3oc(-c4cccc(-c5ccccc5)c4C)cc(=O)c3c2)CC1`, the IC50 is above 10 µM. Consider `CC(=O)NCCNCc1ccc(O)c(C(=O)/C=C/c2cccc(-c3ccccc3)c2C)c1`, for which it took 5.3 µM to reach half-maximal inhibition (IC50). `Cc1c(COc2cc(OCc3cccc(C#N)c3)c(CN3CC[C@H](O)C3)cc2Cl)cccc1-c1ccccc1` came in with a half-inhibitory concentration (IC50) of 0.01 to 0.1 µM.

`Cc1c(-c2ccccc2)cccc1-c1cc(=O)c2cc(CN3CCN(CC4CC4)CC3)ccc2o1` registered an IC50 above 10 µM. `Cc1c(COc2cc(OCc3cccc(C#N)c3)c(CN3CCN(C(C)C)CC3)cc2Cl)cccc1-c1ccc2c(c1)OCCO2` came in with an IC50 above 1 µM. In turn, `Cc1c(COc2cc(OCc3cccc(C#N)c3)c(CN[C@@H](CO)C(=O)O)cc2Cl)cccc1-c1ccncc1` returned an IC50 above 0.1 µM.

`Cc1c(COc2cc(OCc3cccc(C#N)c3)c(CN3CCCC[C@@H]3C(=O)O)cc2Cl)cccc1-c1ccncc1` returned an IC50 above 0.1 µM. Regarding `Cc1c(COc2cc(OCc3cccc(C#N)c3)c(CN3C[C@@H](O)C[C@@H]3CO)cc2Cl)cccc1-c1ccccc1`, the IC50 lay within 0.01 to 0.1 µM. `CC(=O)N1CCN(Cc2ccc(O)c(C(=O)/C=C/c3cccc(-c4ccc5c(c4)OCCO5)c3C)c2)CC1` registered an IC50 above 20 µM. For the compound `Cc1c(COc2cc(OCc3cccc(C#N)c3)c(CN[C@H](CO)C(=O)O)cc2Cl)cccc1-c1ccncc1`, the IC50 was above 0.1 µM.

`CC(=O)N1CCN(Cc2ccc(O)c(C(=O)/C=C/c3cccc(-c4ccccc4)c3)c2)CC1` yielded an IC50 above 20 µM.

Compound `CC(=O)N1CCN(Cc2ccc(O)c(C(=O)/C=C/c3cccc(-c4ccccc4)c3C)c2)CC1` displayed an IC50 of 14.4 µM.

In the case of `Cc1c(COc2cc(OCc3cccc(C#N)c3)c(CN3CCNCC3)cc2Cl)cccc1-c1ccc2c(c1)OCCO2`, 0.233 µM corresponded to half-maximal inhibition (IC50). The same measure for `Cc1c(COc2cc(OCc3cccc(C#N)c3)c(CN3CCCC[C@H]3C(=O)O)cc2Cl)cccc1-c1cccnc1`: above 0.1 µM; for `O=c1cc(-c2ccc(O)cc2)oc2cc(O[C@@H]3O[C@H](CO)[C@@H](O)[C@H](O)[C@H]3O[C@@H]3OC[C@](O)(CO)[C@H]3O)cc(O)c12` [APIIN]: above 100 µM; for `Cc1c(COc2cc(OCc3cccc(C#N)c3)c(CN3C[C@@H](O)C[C@H]3C(=O)O)cc2Cl)cccc1-c1cccnc1`: above 0.1 µM. The same measure for `CCN1CCN(Cc2cc(Cl)c(OCc3cccc(-c4ccc5c(c4)OCCO5)c3C)cc2OCc2cccc(C#N)c2)CC1`: 0.711 µM; for `Cc1c(COc2cc(OCc3cccc(C#N)c3)c(CN3C[C@H](O)[C@@H](F)C3)cc2Cl)cccc1-c1ccc2c(c1)OCCO2`: above 0.1 µM; for `Cc1c(COc2cc(OCc3cccc(C#N)c3)c(CNCCN)cc2Cl)cccc1-c1ccc2c(c1)OCCO2`: above 0.1 µM. In the case of `CC(=O)N1CCN(Cc2ccc(O)c(C(=O)/C=C/c3cccc(-c4ccccc4)c3F)c2)CC1`, the IC50 was above 20 µM. Compound `Cc1c(COc2ccc3cc(CN4C[C@@H](O)C[C@H]4C(=O)O)ccc3c2)cccc1-c1ccccc1` returned an IC50 above 10 µM. The same measure for `Cc1c(COc2cc(OCc3cccc(C#N)c3)c(CN3CCN(C4CC4)CC3)cc2Cl)cccc1-c1ccc2c(c1)OCCO2`: 0.409 µM; for `CC(=O)NCCNCc1ccc2cc(OCc3cccc(-c4ccccc4)c3C)ccc2c1`: above 10 µM; for `Cc1c(COc2cc(OCc3cccc(C#N)c3)c(CNCCN(C)C)cc2Cl)cccc1-c1ccccc1`: 0.01 to 0.1 µM. On to `Cc1c(COc2cc(OCc3cccc(C#N)c3)c(CNC(C)(C)C(=O)O)cc2Cl)cccc1-c1ccc2c(c1)OCCO2`, for which the IC50 amounted to 0.0252 µM. `Cc1c(COc2cc(OCc3cccc(C#N)c3)c(CN[C@@H](C(=O)O)[C@H](C)O)cc2Cl)cccc1-c1ccncc1` displayed an IC50 above 0.1 µM. On to `Cc1c(COc2cc(OCc3cccc(C#N)c3)c(CN[C@H](C(=O)O)[C@@H](C)O)cc2Cl)cccc1-c1ccccc1`, for which 0.009 µM corresponded to half-maximal inhibition (IC50). The compound `Cc1c(/C=C/C(=O)c2cc(CN3CCNCC3)ccc2O)cccc1-c1ccccc1` came in with an IC50 above 20 µM. In the case of `CCN1CCN(Cc2ccc(O)c(C(=O)/C=C/c3cccc(-c4ccccc4)c3C)c2)CC1`, it took 14.6 µM to reach half-maximal inhibition (IC50). `Cc1c(COc2cc(OCc3cccc(C#N)c3)c(CN3CC[C@@H](C(=O)O)C3)cc2Cl)cccc1-c1ccc2c(c1)OCCO2` gave an IC50 of 0.0152 µM.

Compound `Cc1c(COc2cc(OCc3cccc(C#N)c3)c(CN3CC[C@@H](C(=O)O)C3)cc2Cl)cccc1-c1ccccc1` gave a half-inhibitory concentration (IC50) of 0.01 to 0.1 µM. Consider `Cc1c(COc2cc(OCc3cccc(C#N)c3)c(CN3CC(O)C3)cc2Cl)cccc1-c1ccc2c(c1)OCCO2`, for which 0.0304 µM corresponded to half-maximal inhibition (IC50). `Cc1c(COc2cc(OCc3cccc(C#N)c3)c(CN3CC(C)(O)C3)cc2Cl)cccc1-c1ccc2c(c1)OCCO2` returned an IC50 of 0.01 to 0.1 µM. Consider `CC(=O)N1CCN(Cc2cc(Cl)c(OCc3cccc(-c4ccc5c(c4)OCCO5)c3C)cc2OCc2cccc(C#N)c2)CC1`, for which the half-inhibitory concentration (IC50) came out at 0.408 µM. Take `Cc1c(COc2cc(OCc3cccc(C#N)c3)c(CN[C@@H](C(=O)O)[C@H](C)O)cc2Cl)cccc1-c1ccccc1`: half-maximal inhibition (IC50) required 0.0085 µM.

In the case of `Cc1c(COc2cc(OCc3cccc(C#N)c3)c(CN3C[C@@H](O)C[C@H]3C(=O)O)cc2Cl)cccc1-c1ccncc1`, the IC50 is above 0.1 µM. `Cc1c(COc2cc(OCc3cccc(C#N)c3)c(CNCCNC(=O)OC(C)(C)C)cc2Cl)cccc1-c1ccc2c(c1)OCCO2` yielded an IC50 of 0.0559 µM. The same measure for `Cc1c(COc2cc(OCc3cccc(C#N)c3)c(CN3CCN(C)CC3)cc2Cl)cccc1-c1ccc2c(c1)OCCO2`: 0.225 µM. Regarding `Cc1c(COc2ccc3cc(CNC(C)(C)C(=O)O)ccc3c2)cccc1-c1ccccc1`, the IC50 was above 10 µM. For `Cc1c(COc2cc(OCc3cccc(C#N)c3)c(CNCCN(C)C)cc2Cl)cccc1-c1ccc2c(c1)OCCO2`, the IC50 was 0.0263 µM. `Cc1c(COc2cc(OCc3cccc(C#N)c3)c(CN3CC[C@H](C(=O)O)C3)cc2Cl)cccc1-c1ccccc1` returned an IC50 of 0.01 to 0.1 µM. As for `Cc1c(COc2cc(OCc3cccc(C#N)c3)c(CN3CCCCC3C(=O)O)cc2Cl)cccc1-c1ccncc1` (stereo not drawn), the figure is above 0.1 µM; as for `Cc1c(COc2cc(OCc3cccc(C#N)c3)c(CN3CC(C)(O)C3)cc2Cl)cccc1-c1ccccc1`, above 0.1 µM; as for `Cc1c(COc2cc(OCc3cccc(C#N)c3)c(CNCCO)cc2Cl)cccc1-c1ccncc1`, above 0.1 µM. `Cc1c(COc2cc(OCc3cccc(C#N)c3)c(CN3CCN(CC4CC4)CC3)cc2Cl)cccc1-c1ccc2c(c1)OCCO2` displayed an IC50 above 1 µM.

Regarding `Cc1c(COc2cc(OCc3cccc(C#N)c3)c(CN3CC[C@@H](O)C3)cc2Cl)cccc1-c1ccc2c(c1)OCCO2`, half-maximal inhibition (IC50) was put at 0.0149 µM. In turn, `Cc1c(COc2ccc3cc(CN[C@@H](CO)C(=O)O)ccc3c2)cccc1-c1ccc2c(c1)OCCO2` had an IC50 above 10 µM.

For the compound `CC(=O)N1CCN(Cc2ccc3oc(-c4cccc(-c5ccccc5)c4C)cc(=O)c3c2)CC1`, the IC50 was above 10 µM. As for `Cc1c(COc2cc(OCc3cccc(C#N)c3)c(CN[C@H](C(=O)O)[C@H](C)O)cc2Cl)cccc1-c1ccccc1`, the figure is 0.0141 µM. Compound `Cc1c(COc2cc(OCc3cccc(C#N)c3)c(CN3CCCC[C@H]3C(=O)O)cc2Cl)cccc1-c1cncnc1` came in with an IC50 above 0.1 µM. `Cc1c(COc2cc(OCc3cccc(C#N)c3)c(CN3C[C@@H](O)C[C@H]3C(=O)O)cc2Cl)cccc1-c1cncnc1`: the IC50 is above 0.1 µM. Compound `Cc1c(/C=C/C(=O)c2cc(CN3CCN(C4CC4)CC3)ccc2O)cccc1-c1ccccc1` returned an IC50 above 20 µM. `Cc1c(COc2cc(OCc3cccc(C#N)c3)c(CNCC(=O)O)cc2Cl)cccc1-c1ccc2c(c1)OCCO2`: the IC50 was above 0.1 µM.

These data come from ChEMBL document CHEMBL4619786, “Discovery of Novel Resorcinol Dibenzyl Ethers Targeting the Programmed Cell Death-1/Programmed Cell Death-Ligand 1 Interaction as Potential Anticancer Agents” (J Med Chem, 2020).
